Measured values reported in ChEMBL document CHEMBL1201862, “PubChem BioAssay data set” (2004).
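Exposure lasted 48 hours, with cells grown in 96-well plates and compounds tested at five concentrations. The concentration for 50% growth inhibition is given as GI50.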 The source made the active and inactive calls. Cut-off read from the data, not from the text of the source: active = GI50 up to about 1.1 µM and inactive = higher. Starred links: 1 amine or outer side, 2 acyl side, 3 side chain; linkers in the order of their positions; H or OH if unused. Non-standard residues stand in square brackets, D forms with d. Residues, ends and D or L forms follow the SMILES beside them. X41 = CSCCCC(N[*:1])C(=O)[*:2]

What was measured:
Assay in all cases: NCI tumour cell line growth inhibition, 48 h
[1] = tested on: 786-0
[2] = tested on: ACHN
[3] = tested on: COLO 205
[4] = tested on: HOP-62
[5] = tested on: IGROV-1
[6] = tested on: K562
[7] = tested on: KM12
[8] = tested on: LOX IMVI
[9] = tested on: MCF7
[10] = tested on: MDA-N
[11] = tested on: NCI-H460
[12] = tested on: SK-OV-3
[13] = tested on: SNB-75
[14] = tested on: SR
[15] = tested on: TK-10
[16] = tested on: UACC-257
[17] = tested on: UACC-62
[18] = tested on: UO-31
[19] = tested on: CCRF-CEM
[20] = tested on: MOLT-4

Measured: GI50

O=c1c2ccccc2nc(-c2cccc([N+](=O)[O-])c2)n1O
inactive: [1] 42.9 µM | [2] 38.5 µM | [3] 31.3 µM | [4] 49 µM | [5] 22.8 µM | [6] 4.22 µM | [7] 36.5 µM | [8] 27.2 µM | [9] 24.4 µM | [10] 43.4 µM | [11] 29.2 µM | [12] 42.8 µM | [13] 45.8 µM | [14] > 100 µM | [15] 94.2 µM | [16] 50.7 µM | [17] 33.5 µM | [18] 33.7 µM

Cc1oc2nc1C(=O)NCc1nc(cs1)C(=O)N[C@H](C(C)C)c1nc(cs1)C(=O)N[C@H]2C
inactive: [1] 57.4 µM | [2] > 100 µM | [19] > 100 µM | [3] 75.7 µM | [4] 85.1 µM | [5] 29.9 µM | [6] 54.8 µM | [7] 61.4 µM | [9] 82.2 µM | [10] > 100 µM | [20] 81.7 µM | [11] 66.7 µM | [12] > 100 µM | [13] 95.7 µM | [16] > 100 µM | [17] 81.5 µM | [18] 37.2 µM

Cc1cc2[nH]c3c(C#N)c(-c4ccccc4)c(/C=N/c4ccc(F)cc4)c(=O)n3c2cc1C
inactive: [1] > 100 µM | [2] > 100 µM | [19] > 100 µM | [3] > 100 µM | [4] > 100 µM | [5] > 100 µM | [7] 68.5 µM | [8] > 100 µM | [9] 86.9 µM | [10] 59.7 µM | [11] > 100 µM | [12] > 100 µM | [13] > 100 µM | [15] > 100 µM | [16] > 100 µM | [18] > 100 µM

N#CC1(C#N)C(c2ccccc2)NC23CCCCC2C1(C#N)C(=O)N3 (configuration not stated)
inactive: [1] > 100 µM | [2] > 100 µM | [19] 51.6 µM | [3] > 100 µM | [4] > 100 µM | [5] > 100 µM | [6] > 100 µM | [7] > 100 µM | [9] > 100 µM | [10] > 100 µM | [20] > 100 µM | [11] > 100 µM | [12] > 100 µM | [13] > 100 µM | [14] 57.8 µM | [16] > 100 µM | [17] > 100 µM | [18] > 100 µM

C/C(C[n+]1ccccc1)=N\N=C(N)N
inactive: [1] > 100 µM | [2] > 100 µM | [19] > 100 µM | [3] > 100 µM | [4] > 100 µM | [5] > 100 µM | [6] > 100 µM | [7] > 100 µM | [8] > 100 µM | [9] > 100 µM | [10] > 100 µM | [20] > 100 µM | [11] > 100 µM | [12] > 100 µM | [13] > 100 µM | [15] > 100 µM | [16] > 100 µM | [17] > 100 µM | [18] > 100 µM

CC1=CCS(=O)(=O)C1C(O)C1=C(C)CCCC1(C)C (configuration not stated)
inactive: [1] > 100 µM | [2] > 100 µM | [19] 71.3 µM | [3] 60.1 µM | [4] > 100 µM | [5] > 100 µM | [6] 43.1 µM | [7] 59.7 µM | [8] 62.2 µM | [9] 50.8 µM | [10] 63.1 µM | [20] 51.2 µM | [12] > 100 µM | [13] 98.4 µM | [15] > 100 µM | [16] 58.9 µM | [17] 87.1 µM | [18] 38.3 µM

O=C(O)c1cc(-c2ccncc2)nc2ccccc12
inactive: [1] > 100 µM | [2] > 100 µM | [3] > 100 µM | [4] > 100 µM | [5] > 100 µM | [6] > 100 µM | [7] > 100 µM | [8] > 100 µM | [9] > 100 µM | [10] > 100 µM | [20] > 100 µM | [11] > 100 µM | [12] > 100 µM | [14] > 100 µM | [15] > 100 µM | [16] > 100 µM | [17] > 100 µM | [18] > 100 µM

CSCCCC(NC(=O)CNC(=O)C1CCCN1C(=O)C(Cc1ccc(O)cc1)NC(=O)C(Cc1ccccc1)NC(=O)C(CCCNC(=N)N)NC(=O)C(CC(=O)O)NC(=O)C1CCCN1C(=O)C(CC(=O)O)NC(=O)C1CCCN1C(=O)C1CCCN1C(=O)CN)C(N)=O (configuration not stated) (H-GPPDPDRFYPG[X41]-NH2; configuration not given here)
inactive: [1] > 50 µM | [2] > 50 µM | [19] > 50 µM | [3] > 50 µM | [4] > 50 µM | [5] > 50 µM | [6] > 50 µM | [7] > 50 µM | [8] > 50 µM | [9] > 50 µM | [10] > 50 µM | [20] > 50 µM | [12] > 50 µM | [14] > 50 µM | [15] > 50 µM | [16] > 50 µM | [17] > 50 µM | [18] > 50 µM
